Assay results reported in patent US20250382332A1, “NOVEL ALPHA-FACTOR BASED PEPTIDES WITH ANTIFUNGAL ACTIVITY” (INVAIO SCIENCES, INC., priority 2024, published 2025).
Peptide text beside a SMILES is read from it.

Tested on: Botrytis cinerea (B05.10)
Assay: Resazurin antifungal assay of 180 alpha-factor peptide variants towards Botrytis (Example 2)
Format: cell-based
Conditions: % inhibition of fungal growth, Botrytis conidia, resazurin; for Inhibition at 10 μM: peptide 10 μM; for Inhibition at 20 μM: peptide 20 μM; for Inhibition at 50 μM: peptide 50 μM; for Inhibition at 100 μM: peptide 100 μM
Outline: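 B. cinerea B05.10 conidia (5000/well) were exposed to peptides at 100, 50, 20, 15 and 10 μM final for 24 h at 20° C. Resazurin was then added and fluorescence read at 570/620 nm. Percent growth inhibition was calculated against conidia-only wells, with four technical replicates.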

Row | Structure (SMILES) | Inhibition at 10 μM | Inhibition at 20 μM | Inhibition at 50 μM | Inhibition at 100 μM | Inhibition at 15 μM (peptide 15 μM)
1 | CSCC[C@H](NC(=O)CNC(=O)[C@H](CCC(N)=O)NC(=O)CNC(=O)[C@@H](NC(=O)[C@H](CCCCN)NC(=O)[C@H](Cc1ccccc1)NC(=O)[C@@H](NC(=O)[C@H](CC(C)C)NC(=O)[C@H](Cc1c[nH]c2ccccc12)NC(=O)[C@H](Cc1c[nH]cn1)NC(=O)[C@@H](N)Cc1c[nH]c2ccccc12)[C@@H](C)O)[C@@H](C)O)C(=O)N[C@@H](Cc1ccc(O)cc1)C(=O)O [compound 16] (H-WHWLTFKTGQGMY-OH; N-terminus and C-terminus assumed) | <90% | <90% | 100% | 100% | –
2 | CSCC[C@H](NC(=O)[C@H](CO)NC(=O)[C@H](CCC(N)=O)NC(=O)CNC(=O)[C@@H]1CCCN1C(=O)[C@H](CCCCN)NC(=O)[C@H](CC(C)C)NC(=O)[C@H](CCCNC(=N)N)NC(=O)[C@H](CC(C)C)NC(=O)[C@H](Cc1ccc(O)cc1)NC(=O)[C@H](Cc1c[nH]cn1)NC(=O)[C@@H](N)Cc1c[nH]c2ccccc12)C(=O)N[C@@H](Cc1ccc(O)cc1)C(=O)O [compound 70] (H-WHYLRLKPGQSMY-OH; N-terminus and C-terminus assumed) | <90% | <90% | 100% | 100% | –
3 | CC[C@H](C)[C@H](NC(=O)CNC(=O)[C@H](CCCNC(=N)N)NC(=O)[C@@H](N)CCCCN)C(=O)N[C@@H](CC(N)=O)C(=O)N[C@@H](CC(C)C)C(=O)N[C@@H](CCCCN)C(=O)N1CCC[C@H]1C(=O)NCC(=O)N[C@@H](CCC(N)=O)C(=O)N1CCC[C@H]1C(=O)N[C@@H](CCSC)C(=O)N[C@@H](Cc1ccc(O)cc1)C(=O)O [compound 104] (H-KRGINLKPGQPMY-OH; N-terminus and C-terminus assumed) | <90% | <90% | <90% | 99.59% | –
4 | CSCC[C@H](NC(=O)[C@@H]1CCCN1C(=O)[C@H](CCC(N)=O)NC(=O)CNC(=O)[C@@H]1CCCN1C(=O)[C@H](Cc1c[nH]c2ccccc12)NC(=O)[C@H](CC(C)C)NC(=O)[C@H](CCCCN)NC(=O)[C@H](CC(C)C)NC(=O)[C@H](Cc1ccccc1)NC(=O)[C@H](Cc1c[nH]cn1)NC(=O)[C@@H](N)CCCCN)C(=O)N[C@@H](Cc1ccc(O)cc1)C(=O)O [compound 17] (H-KHFLKLWPGQPMY-OH; N-terminus and C-terminus assumed) | <90% | <90% | 100% | 100% | –
5 | CSCC[C@H](NC(=O)[C@H](Cc1c[nH]cn1)NC(=O)[C@@H](N)Cc1c[nH]c2ccccc12)C(=O)N[C@@H](CC(C)C)C(=O)N[C@@H](CC(N)=O)C(=O)N[C@@H](Cc1ccccc1)C(=O)N[C@@H](CCCCN)C(=O)N1CCC[C@H]1C(=O)NCC(=O)N[C@@H](CCC(N)=O)C(=O)N1CCC[C@H]1C(=O)N[C@@H](CCSC)C(=O)N[C@@H](Cc1ccc(O)cc1)C(=O)O [compound 118] (H-WHMLNFKPGQPMY-OH; N-terminus and C-terminus assumed) | – | – | <90% | <90% | –
6 | CSCC[C@H](NC(=O)[C@@H]1CCCN1C(=O)[C@H](CCC(N)=O)NC(=O)CNC(=O)[C@H](CO)NC(=O)[C@H](CCCCN)NC(=O)[C@H](CC(C)C)NC(=O)[C@H](CC(N)=O)NC(=O)[C@H](CC(C)C)NC(=O)[C@H](Cc1ccccc1)NC(=O)[C@H](Cc1c[nH]cn1)NC(=O)[C@@H](N)CCCCN)C(=O)N[C@@H](Cc1ccc(O)cc1)C(=O)O [compound 27] (H-KHFLNLKSGQPMY-OH; N-terminus and C-terminus assumed) | – | – | 90.58% | 100% | –
7 | CSCC[C@H](NC(=O)[C@@H]1CCCN1C(=O)[C@H](CCC(N)=O)NC(=O)CNC(=O)[C@H](CC(N)=O)NC(=O)[C@H](CCCCN)NC(=O)[C@H](CC(C)C)NC(=O)[C@H](CO)NC(=O)CNC(=O)[C@H](Cc1c[nH]c2ccccc12)NC(=O)[C@H](CCCCN)NC(=O)[C@@H](N)Cc1c[nH]c2ccccc12)C(=O)N[C@@H](Cc1ccc(O)cc1)C(=O)O [compound 98] (H-WKWGSLKNGQPMY-OH; N-terminus and C-terminus assumed) | <90% | <90% | 95.59% | 100% | –
8 | CSCC[C@H](NC(=O)[C@@H]1CCCN1C(=O)[C@H](CCC(N)=O)NC(=O)CNC(=O)[C@H](CC(C)C)NC(=O)[C@H](CCCCN)NC(=O)[C@H](Cc1ccccc1)NC(=O)[C@H](CCC(N)=O)NC(=O)CNC(=O)[C@H](Cc1c[nH]c2ccccc12)NC(=O)[C@H](Cc1c[nH]cn1)NC(=O)[C@@H]1CCCN1)C(=O)N[C@@H](Cc1ccc(O)cc1)C(=O)O [compound 43] (H-PHWGQFKLGQPMY-OH; N-terminus and C-terminus assumed) | – | – | <90% | <90% | –
9 | CSCC[C@H](NC(=O)[C@@H]1CCCN1C(=O)[C@H](CCC(N)=O)NC(=O)CNC(=O)[C@@H](NC(=O)[C@H](CCCCN)NC(=O)[C@H](CC(C)C)NC(=O)[C@H](CO)NC(=O)CNC(=O)[C@H](Cc1c[nH]c2ccccc12)NC(=O)[C@H](Cc1c[nH]cn1)NC(=O)[C@@H](N)Cc1c[nH]c2ccccc12)C(C)C)C(=O)N[C@@H](Cc1ccc(O)cc1)C(=O)O [compound 82] (H-WHWGSLKVGQPMY-OH; N-terminus and C-terminus assumed) | <90% | <90% | 100% | 100% | –
10 | CSCC[C@H](NC(=O)CNC(=O)[C@H](CCC(N)=O)NC(=O)CNC(=O)[C@H](CC(N)=O)NC(=O)[C@H](CCCCN)NC(=O)[C@H](CC(C)C)NC(=O)[C@H](C)NC(=O)[C@@H](NC(=O)[C@H](Cc1c[nH]c2ccccc12)NC(=O)[C@H](Cc1c[nH]cn1)NC(=O)[C@@H](N)Cc1c[nH]c2ccccc12)C(C)C)C(=O)N[C@@H](Cc1ccc(O)cc1)C(=O)O [compound 23] (H-WHWVALKNGQGMY-OH; N-terminus and C-terminus assumed) | <90% | <90% | 98.68% | 100% | –
11 | CC[C@H](C)[C@H](NC(=O)[C@H](CCCCN)NC(=O)[C@H](Cc1ccccc1)NC(=O)[C@H](CCC(=O)O)NC(=O)[C@H](CC(C)C)NC(=O)[C@H](CO)NC(=O)[C@H](Cc1c[nH]cn1)NC(=O)[C@@H](N)Cc1c[nH]c2ccccc12)C(=O)NCC(=O)N[C@@H](CCC(N)=O)C(=O)NCC(=O)N[C@@H](CCSC)C(=O)N[C@@H](Cc1ccc(O)cc1)C(=O)O [compound 89] (H-WHSLEFKIGQGMY-OH; N-terminus and C-terminus assumed) | <90% | <90% | 99.55% | 100% | –
12 | CC[C@H](C)[C@H](NC(=O)[C@H](Cc1c[nH]cn1)NC(=O)[C@@H](N)Cc1c[nH]c2ccccc12)C(=O)N[C@@H](CC(C)C)C(=O)N[C@@H](CCCNC(=N)N)C(=O)N[C@@H](Cc1ccccc1)C(=O)N[C@@H](CCCCN)C(=O)N[C@@H](CC(N)=O)C(=O)NCC(=O)N[C@@H](CCSC)C(=O)N1CCC[C@H]1C(=O)N[C@@H](CCSC)C(=O)N[C@@H](Cc1ccc(O)cc1)C(=O)O [compound 105] (H-WHILRFKNGMPMY-OH; N-terminus and C-terminus assumed) | <90% | <90% | <90% | 100% | –
13 | CSCC[C@H](NC(=O)[C@@H]1CCCN1C(=O)[C@H](CO)NC(=O)CNC(=O)[C@@H]1CCCN1C(=O)[C@H](CCCCN)NC(=O)[C@H](CC(C)C)NC(=O)[C@@H](NC(=O)[C@H](CC(C)C)NC(=O)[C@@H](NC(=O)[C@H](CCC(=O)O)NC(=O)[C@@H](N)Cc1c[nH]c2ccccc12)C(C)C)[C@@H](C)O)C(=O)N[C@@H](Cc1ccc(O)cc1)C(=O)O [compound 130] (H-WEVLTLKPGSPMY-OH; N-terminus and C-terminus assumed) | – | – | <90% | <90% | –
14 | CC[C@H](C)[C@H](NC(=O)[C@H](Cc1c[nH]c2ccccc12)NC(=O)[C@H](Cc1c[nH]cn1)NC(=O)[C@@H](N)CCCCN)C(=O)N[C@H](C(=O)N[C@@H](CC(C)C)C(=O)N[C@@H](CCCCN)C(=O)N[C@@H](CO)C(=O)NCC(=O)N[C@@H](CCSC)C(=O)N1CCC[C@H]1C(=O)N[C@@H](CCSC)C(=O)N[C@@H](Cc1ccc(O)cc1)C(=O)O)[C@@H](C)O [compound 59] (H-KHWITLKSGMPMY-OH; N-terminus and C-terminus assumed) | <90% | 90.97% | 100% | 100% | <90%
15 | CSCC[C@H](NC(=O)[C@H](Cc1c[nH]cn1)NC(=O)[C@@H](N)Cc1c[nH]c2ccccc12)C(=O)N[C@@H](CC(C)C)C(=O)N[C@@H](CCC(=O)O)C(=O)N[C@@H](Cc1ccccc1)C(=O)N[C@@H](CCCCN)C(=O)N1CCC[C@H]1C(=O)NCC(=O)N[C@@H](CCC(N)=O)C(=O)N1CCC[C@H]1C(=O)N[C@@H](CCSC)C(=O)N[C@@H](Cc1ccc(O)cc1)C(=O)O [compound 36] (H-WHMLEFKPGQPMY-OH; N-terminus and C-terminus assumed) | – | – | <90% | <90% | –
